From US20220056037A1 (SPV THERAPEUTICS INC., priority 2018, published 2022)

Columns and labels:
Experiment in all cases: 2D cell proliferation assay (CellTiter-Blue)
Type in all cases: cell-based
[1] = test system: MAXFLB 147D (ER +); conditions: 72 h; cell line MAXFLB 147D (ER +); three days of treatment; read-out: IC (abs. IC50)
Procedure: (§1) Viability of the cells was analyzed by using the CellTiter-Blue® Cell Viability Assay (Promega), and was performed according to manufacturer's instructions. Briefly, cells were harvested from exponential phase cultures (Chapter 6.6), counted and plated in 96-well flat-bottom microtiter plates at a cell density of 4,000-60,000 cells/well in a volume of 140 μl per well. After a 24 hours recovery period, 10 μL cell culture medium (six control wells/plate) or culture medium with test compound were added (Chapter 6.2). The compounds were applied at five concentrations in full-log increments up to 100 μM in duplicate. Cultures were incubated at 37° C. and 5% CO2 in a humidified atmosphere for another three days. After three days of treatment, 20 μl/well CellTiter-Blue® reagent was added. Following incubation with CellTiter-Blue® reagent for up to four hours, fluorescence (FU) was measured by using the Enspire Multimode Plate Reader (excitation λ=570 nm, emission λ=600 nm). For calculations, the mean values of duplicate/sextuplicate (untreated control) data were used.
(§2) Drug effects were expressed in terms of the percentage of the fluorescence signal, obtained by comparison of the mean signal in the treated wells with the mean signal of the untreated controls (expressed by the test-versus-control value, T/C-value [%]):
(§3) IC values are reported as relative IC50 values and absolute IC50 and IC70 values. […] The absolute IC70 value gives the concentration of the test compound that achieves T/C=30%. The relative IC50 value is the concentration of test compound that gives a response half way between the top and bottom plateau of the sigmoidal concentration-response curve (inflection point of the curve). Calculation was done by 4parameter non-linear curve fit (Oncotest Data Warehouse Software).
(§4) If an IC50 or IC70 value could not be determined within the examined dose range (because a compound was either too active or lacked activity), the lowest or highest concentration studied was used for calculation of the geometric mean value.
(§5) The overall potency of a compound was determined by the geometric mean IC50/IC70 values of all individual IC50/IC70 values. In the heatmap representation of IC50 and IC70 values, the distribution of the IC50 or IC70 values obtained for a test compound in the individual cell lines is given in relation to the geometric mean […] or IC70 value, obtained over all PDX models tested. The individual IC values range from 1/32-fold geometric mean IC (corresponding to very potent compound activity or high tumor sensitivity) to 32-fold geometric mean IC (corresponding to lack of compound activity or tumor resistance). The heatmap presentation, therefore, represents an antiproliferative “fingerprint” profile of a test compound.

[2] = test system: GXA MKN45; conditions: Homo sapiens, MKN-45, 72 h; cell line GXA MKN45; three days of treatment; read-out: IC (abs. IC50)
Procedure: as §1, §2, §3, §4, §5

[3] = test system: LEXFAL MOLT-4; conditions: Homo sapiens, 72 h; cell line LEXFAL MOLT-4; three days of treatment; read-out: IC (abs. IC50)
Procedure: as §1, §2, §3, §4, §5

[4] = test system: LIXFH HEP-3B; conditions: Homo sapiens, Hep3B, 72 h; cell line LIXFH HEP-3B; three days of treatment; read-out: IC (abs. IC50)
Procedure: as §1, §2, §3, §4, §5

[5] = test system: CNXF U-87 MG; conditions: Homo sapiens, 72 h; cell line CNXF U-87 MG; three days of treatment; read-out: IC (abs. IC50)
Procedure: as §1, §2, §3, §4, §5

[6] = test system: LYXFNH U-937; conditions: Homo sapiens, 72 h; cell line LYXFNH U-937; three days of treatment; read-out: IC (abs. IC50)
Procedure: as §1, §2, §3, §4, §5

[7] = test system: MEXF WM-266-4; conditions: Homo sapiens, 72 h; cell line MEXF WM-266-4; three days of treatment; read-out: IC (abs. IC50)
Procedure: as §1, §2, §3, §4, §5

[8] = test system: CXF HCT-15; conditions: Homo sapiens, 72 h; cell line CXF HCT-15; three days of treatment; read-out: IC (abs. IC50)
Procedure: as §1, §2, §3, §4, §5

[9] = test system: UXF MFE-319; conditions: 72 h; cell line UXF MFE-319; three days of treatment; read-out: IC (abs. IC50)
Procedure: as §1, §2, §3, §4, §5

[10] = test system: LXFA NCI-H1975; conditions: Homo sapiens, 72 h; cell line LXFA NCI-H1975; three days of treatment; read-out: IC (abs. IC50)
Procedure: as §1, §2, §3, §4, §5

[11] = test system: LXFE Calu-1; conditions: Homo sapiens, 72 h; cell line LXFE Calu-1; three days of treatment; read-out: IC (abs. IC50)
Procedure: as §1, §2, §3, §4, §5

[12] = test system: MAXFTN BT-549; conditions: Homo sapiens, 72 h; cell line MAXFTN BT-549; three days of treatment; read-out: IC (abs. IC50)
Procedure: as §1, §2, §3, §4, §5

[13] = test system: LEXFCM K-562; conditions: Homo sapiens, K562, 72 h; cell line LEXFCM K-562; three days of treatment; read-out: IC (abs. IC50)
Procedure: as §1, §2, §3, §4, §5

[14] = test system: MAXFTN MDA-MB-453; conditions: Homo sapiens, 72 h; cell line MAXFTN MDA-MB-453; three days of treatment; read-out: IC (abs. IC50)
Procedure: as §1, §2, §3, §4, §5

[15] = test system: PAXF MIA-Pa-Ca-2; conditions: Homo sapiens, MIA PaCa-2, 72 h; cell line PAXF MIA-Pa-Ca-2; three days of treatment; read-out: IC (abs. IC50)
Procedure: as §1, §2, §3, §4, §5

[16] = test system: PRXF 22Rv1; conditions: Homo sapiens, 72 h; cell line PRXF 22Rv1; three days of treatment; read-out: IC (abs. IC50)
Procedure: as §1, §2, §3, §4, §5

[17] = test system: PRXF DU-145; conditions: Homo sapiens, 72 h; cell line PRXF DU-145; three days of treatment; read-out: IC (abs. IC50)
Procedure: as §1, §2, §3, §4, §5

[18] = test system: MAXFLB MCF7 (ER +); conditions: Homo sapiens, 72 h; cell line MAXFLB MCF7 (ER +); three days of treatment; read-out: IC (abs. IC50)
Procedure: as §1, §2, §3, §4, §5

SMILES: CN1CCN(c2ccc(Nc3ncc4cc(C(=O)N(C)C)n(C56CC(C5)C6)c4n3)cc2)CC1 [SPV113]
- IC50 [1]: 3470 nM
- IC50 [2]: 1080 nM
- IC50 [3]: 567 nM
- IC50 [4]: 367 nM
- IC50 [5]: 100000 nM
- IC50 [6]: ≤ 10 nM
- IC50 [7]: 3300 nM
- IC50 [8]: 202 nM
- IC50 [9]: 667 nM
- IC50 [10]: 122 nM
- IC50 [11]: 1560 nM
- IC50 [12]: 713 nM
- IC50 [13]: 1150 nM
- IC50 [14]: 177 nM
- IC50 [15]: 105 nM
- IC50 [16]: ≤ 10 nM
- IC50 [17]: 253 nM
- IC50 [18]: 173 nM
